In patent publication US8367658B2, “Pyrazin-2-yl-pyridin-2-yl-amine and pyrazin-2-yl-pyrimidin-4-yl-amine compounds and their use” (Cancer Research Technology Limited, priority 2007, dated 2013):

Target: T1, CHK1 (Homo sapiens, UniProt O14757)
T1 sequence (O14757 1-476): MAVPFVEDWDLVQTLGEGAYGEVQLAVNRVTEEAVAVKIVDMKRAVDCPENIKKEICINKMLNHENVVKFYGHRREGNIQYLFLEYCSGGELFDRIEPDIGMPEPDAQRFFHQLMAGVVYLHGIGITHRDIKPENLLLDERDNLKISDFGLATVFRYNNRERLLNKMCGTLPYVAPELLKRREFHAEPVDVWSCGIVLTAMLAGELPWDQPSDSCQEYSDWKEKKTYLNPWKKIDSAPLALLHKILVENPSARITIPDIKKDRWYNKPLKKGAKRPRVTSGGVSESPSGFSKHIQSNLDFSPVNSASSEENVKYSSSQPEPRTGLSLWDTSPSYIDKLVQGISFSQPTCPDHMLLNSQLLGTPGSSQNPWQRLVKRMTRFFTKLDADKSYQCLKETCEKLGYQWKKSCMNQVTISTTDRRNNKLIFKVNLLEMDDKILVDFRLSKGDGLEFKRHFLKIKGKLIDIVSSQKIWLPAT
Experiment: CHK1 kinase function inhibition assay (DELFIA, phosphorylation of a CDC25C peptide)
Assay type: biochemical
Conditions: CHK1 1 nM, ATP 30 μM, 30 minutes at room temperature
Procedure: Measurement of Inhibition of CHK1 Kinase Function
CHK1 kinase function was measured in a DELFIA® assay in order to monitor phosphorylation of a CDC25C peptide using a specific phospho antibody.
The reaction mixture was incubated for 30 minutes at room temperature and then stopped by the addition of buffer (125 μL) containing 40 mM EDTA, 0.05% Tween 20, 0.1% BSA in TBS (10× concentrate, Sigma). An aliquot (100 μL) of the stopped reaction mixture was transferred to a black neutravidin-coated plate (Perbio) and incubated for 1 hour on a shaker (Titertek, Flow Laboratories) at room temperature. […] The plates were washed a further four times with wash buffer before the addition of enhancement solution (100 μL/well, PerkinElmer Life Sciences).

Compound | IC50 [nM]
CCNC(=O)c1cnc(Nc2cnc(C#N)cn2)cc1NC1CCN(C)CC1 [Compound Y-085, 6-(5-Cyanopyrazin-2-ylamino)-N-ethyl-4-(1-methylpiperidin-4-ylamino)nicotinamide] | ≤ 100
CC(C)NC(=O)c1cnc(Nc2cnc(C#N)cn2)cc1NCC1CCNCC1 [Compound Y-086, 6-(5-Cyanopyrazin-2-ylamino)-N-isopropyl-4-(piperidin-4-ylmethylamino)nicotinamide] | ≤ 100
N#Cc1cnc(Nc2cc(NCC3CCNCC3)c(C(=O)N3CCCC3)cn2)cn1 [Compound Y-087, 5-(4-(Piperidin-4-ylmethylamino)-5-(pyrrolidine-1-carbonyl)pyridin-2-ylamino)pyrazine-2-carbonitrile] | ≤ 100
N#Cc1cnc(Nc2cc(NCC3CCNCC3)c(C(=O)NCCO)cn2)cn1 [Compound Y-088, 6-(5-Cyanopyrazin-2-ylamino)-N-(2-hydroxyethyl)-4-(piperidin-4-ylmethylamino)nicotinamide] | 100 to 1000
N#Cc1cnc(Nc2cc(NCC3CCNCC3)c(C(=O)N3CCOCC3)cn2)cn1 [Compound Y-089, 5-(5-(Morpholine-4-carbonyl)-4-(piperidin-4-ylmethylamino)pyridin-2-ylamino)pyrazine-2-carbonitrile] | 1000 to 10000
COCCN(C)C(=O)c1cnc(Nc2cnc(C#N)cn2)cc1NCC1CCNCC1 [Compound Y-091, 6-(5-Cyanopyrazin-2-ylamino)-N-(2-methoxyethyl)-N-methyl-4-(piperidin-4-ylmethylamino)nicotinamide] | 100 to 1000
N#Cc1cnc(Nc2cc(NCC3CCNCC3)c(C(=O)Nc3ccc(F)cc3)cn2)cn1 [Compound Y-092, 6-(5-Cyanopyrazin-2-ylamino)-N-(4-fluorophenyl)-4-(piperidin-4-ylmethylamino)nicotinamide] | 100 to 1000
N#Cc1cnc(Nc2cc(NCC3CCNCC3)c(C(=O)Nc3ccccc3F)cn2)cn1 [Compound Y-093, 6-(5-Cyanopyrazin-2-ylamino)-N-(2-fluorophenyl)-4-(piperidin-4-ylmethylamino)nicotinamide] | 100 to 1000
N#Cc1cnc(Nc2cc(NCC3CCNCC3)c(C(=O)Nc3cccc(F)c3)cn2)cn1 [Compound Y-094, 6-(5-Cyanopyrazin-2-ylamino)-N-(3-fluorophenyl)-4-(piperidin-4-ylmethylamino)nicotinamide] | 100 to 1000
COc1ccc(NC(=O)c2cnc(Nc3cnc(C#N)cn3)cc2NCC2CCNCC2)cc1 [Compound Y-095, 6-(5-Cyanopyrazin-2-ylamino)-N-(4-methoxyphenyl)-4-(piperidin-4-ylmethylamino)nicotinamide] | ≤ 100
COc1cccc(NC(=O)c2cnc(Nc3cnc(C#N)cn3)cc2NCC2CCNCC2)c1 [Compound Y-096, 6-(5-Cyanopyrazin-2-ylamino)-N-(3-methoxyphenyl)-4-(piperidin-4-ylmethylamino)nicotinamide] | ≤ 100
COc1ccccc1NC(=O)c1cnc(Nc2cnc(C#N)cn2)cc1NCC1CCNCC1 [Compound Y-097, 6-(5-Cyanopyrazin-2-ylamino)-N-(2-methoxyphenyl)-4-(piperidin-4-ylmethylamino)nicotinamide] | 100 to 1000
N#Cc1cnc(Nc2cc(NCC3CCNCC3)c(C(=O)Nc3ccc(OCCN4CCOCC4)cc3)cn2)cn1 [Compound Y-098, 6-(5-Cyanopyrazin-2-ylamino)-N-(4-(2-morpholinoethoxy)phenyl)-4-(piperidin-4-ylmethylamino)nicotinamide] | ≤ 100
N#Cc1cnc(Nc2cc(NCC3CCNCC3)c(C(=O)Nc3cccc(N4CCOCC4)c3)cn2)cn1 [Compound Y-099, 6-(5-Cyanopyrazin-2-ylamino)-N-(3-morpholinophenyl)-4-(piperidin-4-ylmethylamino)nicotinamide] | ≤ 100
N#Cc1cnc(Nc2cc(NCC3CCNCC3)c(C(=O)Nc3ccc(N4CCOCC4)cc3)cn2)cn1 [Compound Y-100, 6-(5-Cyanopyrazin-2-ylamino)-N-(4-morpholinophenyl)-4-(piperidin-4-ylmethylamino)nicotinamide] | ≤ 100
N#Cc1cnc(Nc2cc(NCC3CCNCC3)c(C(N)=O)cn2)cn1 [Compound Y-101, 6-(5-Cyanopyrazin-2-ylamino)-4-(piperidin-4-ylmethylamino)nicotinamide] | 100 to 1000
N#Cc1cnc(Nc2cc(NCC3CNCCO3)c(C(=O)Nc3ccccc3)cn2)cn1 (stereo not shown) [Compound Y-102, 6-(5-Cyanopyrazin-2-ylamino)-4-(morpholin-2-ylmethylamino)-N-phenylnicotinamide] | ≤ 100

Compound | IC50 [nM]
CN1CCC(Nc2cc(Nc3cnc(C#N)cn3)ncc2C(=O)Nc2ccccc2)CC1 [Compound Y-103, 6-(5-Cyanopyrazin-2-ylamino)-4-(1-methylpiperidin-4-ylamino)-N-phenylnicotinamide] | ≤ 100
CN1CCC(Nc2cc(Nc3cnc(C#N)cn3)ncc2C(=O)O)CC1 [Compound Y-104, 6-(5-Cyanopyrazin-2-ylamino)-4-(1-methylpiperidin-4-ylamino)nicotinic acid] | 1000 to 10000
COC(=O)c1cnc(Nc2cnc(C)cn2)cc1NC1CCN(C)CC1 [Compound Y-105, methyl 4-(1-methylpiperidin-4-ylamino)-6-(5-methylpyrazin-2-ylamino)nicotinate] | ≤ 100
COC(=O)c1cnc(Nc2cnc(OC)cn2)cc1NCC1CNCCO1 (stereo not shown) [Compound Y-106, Methyl 6-(5-methoxypyrazin-2-ylamino)-4-(morpholin-2-ylmethylamino)nicotinate] | 100 to 1000
CN1CCC(Nc2cc(Nc3cnc(C#N)cn3)ncc2Cl)CC1 [Compound Y-108, 5-(5-Chloro-4-(1-methylpiperidin-4-ylamino)pyridin-2-ylamino)pyrazine-2-carbonitrile] | ≤ 100
CN1CCC(N(C)c2cc(Nc3cnc(C#N)cn3)ncc2Cl)CC1 [Compound Y-109, 5-(5-Chloro-4-(methyl(1-methylpiperidin-4-yl)amino)pyridin-2-ylamino)pyrazine-2-carbonitrile] | 100 to 1000
CN1CCC(Nc2cc(Nc3cnc(C#N)cn3)ncc2Br)CC1 [Compound Y-110, 5-(5-Bromo-4-(1-methylpiperidin-4-ylamino)pyridin-2-ylamino)pyrazine-2-carbonitrile] | ≤ 100
CN1CCC(Nc2cc(Nc3cnc(C#N)cn3)ncc2-c2ccccc2)CC1 [Compound Y-111, 5-(4-(1-Methylpiperidin-4-ylamino)-5-phenylpyridin-2-ylamino)pyrazine-2-carbonitrile] | ≤ 100
CN1CCC(Nc2cc(Nc3cnc(C#N)cn3)ncc2-c2ccsc2)CC1 [Compound Y-112, 5-(4-(1-methylpiperidin-4-ylamino)-5-(thiophen-3-yl)pyridin-2-ylamino)pyrazine-2-carbonitrile] | ≤ 100
CN1CCC(N(C)c2cc(Nc3cnc(C#N)cn3)ncc2-c2ccccc2)CC1 [Compound Y-113, 5-(4-(methyl(1-methylpiperidin-4-yl)amino)-5-phenylpyridin-2-ylamino)pyrazine-2-carbonitrile] | 100 to 1000
COc1ccc(-c2cnc(Nc3cnc(C#N)cn3)cc2NC2CCN(C)CC2)cc1 [Compound Y-114, 5-(5-(4-methoxyphenyl)-4-(1-methylpiperidin-4-ylamino)pyridin-2-ylamino)pyrazine-2-carbonitrile] | ≤ 100
COCc1cccc(-c2cnc(Nc3cnc(C#N)cn3)cc2NC2CCN(C)CC2)c1 [Compound Y-115, 5-(5-(3-(methoxymethyl)phenyl)-4-(1-methylpiperidin-4-ylamino)pyridin-2-ylamino)pyrazine-2-carbonitrile] | ≤ 100
COc1cccc(-c2cnc(Nc3cnc(C#N)cn3)cc2NC2CCN(C)CC2)c1 [Compound Y-116, 5-(5-(3-Methoxyphenyl)-4-(1-methylpiperidin-4-ylamino)pyridin-2-ylamino)pyrazine-2-carbonitrile] | ≤ 100
COCCOc1ccc(-c2cnc(Nc3cnc(C#N)cn3)cc2NC2CCN(C)CC2)cc1 [Compound Y-117, 5-(5-(4-(2-Methoxyethoxy)phenyl)-4-(1-methylpiperidin-4-ylamino)pyridin-2-ylamino)pyrazine-2-carbonitrile] | ≤ 100
COCCOc1cccc(-c2cnc(Nc3cnc(C#N)cn3)cc2NC2CCN(C)CC2)c1 [Compound Y-118, 5-(5-(3-(2-methoxyethoxy)phenyl)-4-(1-methylpiperidin-4-ylamino)pyridin-2-ylamino)pyrazine-2-carbonitrile] | ≤ 100
COCc1ccc(-c2cnc(Nc3cnc(C#N)cn3)cc2NC2CCN(C)CC2)cc1 [Compound Y-119, 5-(5-(4-(Methoxymethyl)phenyl)-4-(1-methylpiperidin-4-ylamino)pyridin-2-ylamino)pyrazine-2-carbonitrile] | ≤ 100
CN1CCC(Nc2cc(Nc3cnc(C#N)cn3)ncc2-c2ccc(N3CCOCC3)cc2)CC1 [Compound Y-120, 5-(4-(1-Methylpiperidin-4-ylamino)-5-(4-morpholinophenyl)pyridin-2-ylamino)pyrazine-2-carbonitrile] | ≤ 100
